From patent US5677282A (Proscript, Inc., priority 1995, dated 1997)
“And” between values parts separate entries of the source, which are not always exact repeats. Identical values can stand only once.

Key:
Assay type in all cases: biochemical
72 kD gelatinase = target: T1, 72 kD gelatinase (Homo sapiens, UniProt P08253); test: Assay of 72 KD gelatinase inhibition activity; conditions: 72KD gelatinase 180 pM, H-150 buffer pH 7.4; read-out: Ki(app)
T1 sequence (P08253 110-660): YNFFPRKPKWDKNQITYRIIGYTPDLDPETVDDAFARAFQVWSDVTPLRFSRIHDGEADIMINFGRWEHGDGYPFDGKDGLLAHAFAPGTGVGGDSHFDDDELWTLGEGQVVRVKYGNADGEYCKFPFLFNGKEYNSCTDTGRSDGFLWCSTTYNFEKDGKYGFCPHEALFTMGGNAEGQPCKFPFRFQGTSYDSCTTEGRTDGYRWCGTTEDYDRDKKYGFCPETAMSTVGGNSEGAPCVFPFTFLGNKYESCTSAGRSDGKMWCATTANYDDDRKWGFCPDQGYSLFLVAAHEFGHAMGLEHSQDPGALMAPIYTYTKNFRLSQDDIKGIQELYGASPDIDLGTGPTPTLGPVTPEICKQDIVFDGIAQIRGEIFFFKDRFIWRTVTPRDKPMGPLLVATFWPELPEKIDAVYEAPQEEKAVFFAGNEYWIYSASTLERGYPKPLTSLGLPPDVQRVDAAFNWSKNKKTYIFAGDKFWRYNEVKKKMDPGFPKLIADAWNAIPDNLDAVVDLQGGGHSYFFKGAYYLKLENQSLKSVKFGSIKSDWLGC
Description: H-150 buffer, pH 7.4, was prepared by CaCl2 H2O (1.47 grams), NaCl (8.77 grams) and N-[2 -hydroxyethyl]piperazine-N'-[2-ethanesulfonic acid](23.83 grams) to distilled and deionized water and then bring the final volume of the solution to 1 liter. An reaction mixture having a final volume of 250 μL was prepared with H-150 buffer, 40 μgrams of Pro-72KD gelatinase (Strongin, et al., J. Biol. Chem. 268:14033 (1993); Goldberg, et al., J. Biol. Chem., 267:4583 (1992); Kleiner, et al., Biochemistry 32:1583 (1993)) and p-aminophenyl mercuric acetate (Sigma Chemical Co., St. Louis, Mo.) (1 mM). The reaction mixture was then incubated for 3 hours at 25° C.
The reaction mixture was applied to a NAP-5 column (G-25 SEPHADEX™, Pharmacia). Fractions containing […] were identified using 12% SDS polyacrylamide gel electrphoresis and concentrated to about 100-200 μliters by centrifigation (5000 g, 15 minutes).
A solution containing H-150 buffer (2.0 mL), 72KD gelatinase (180 pM) and ethylphenolpoly(ethylene-glycolether)n (Boerhringer Mannheim) (1.3 μM) was prepared in a stirred cuvette. Coumarin peptide substrate (2 μL of a 1 mM solution in dimethyl sulfoxide) was added to the reaction mixture. The rate of hydrolysis was determined for about 100-200 seconds by measuring the fluorescence of the reaction at ex328 nanometers and […] using a Hitachi F-2000 Fluorescence Spectrophotometer.
2 μL of a 10 mM inhibitor stock solution (in dimethyl sulfoxide) is added and the reduction in the rate of hydrolysis is determined. Additional 2 μL aliquots of the stock inhibitor solution is added until a 30% to 70% inhibition is observed. Ki is calculated on the assumption of simple competitive inhibition and that the substrate concentration is much less than Km.

[1] = target: human neutrophil collagenase (Homo sapiens, UniProt P22894); test: Assay of human neutrophil collagenase inhibition activity; conditions: human neutrophil collagenase 2 nM, H-150 buffer pH 7.4; read-out: Ki(app)
human neutrophil collagenase, sequence (P22894 101-467): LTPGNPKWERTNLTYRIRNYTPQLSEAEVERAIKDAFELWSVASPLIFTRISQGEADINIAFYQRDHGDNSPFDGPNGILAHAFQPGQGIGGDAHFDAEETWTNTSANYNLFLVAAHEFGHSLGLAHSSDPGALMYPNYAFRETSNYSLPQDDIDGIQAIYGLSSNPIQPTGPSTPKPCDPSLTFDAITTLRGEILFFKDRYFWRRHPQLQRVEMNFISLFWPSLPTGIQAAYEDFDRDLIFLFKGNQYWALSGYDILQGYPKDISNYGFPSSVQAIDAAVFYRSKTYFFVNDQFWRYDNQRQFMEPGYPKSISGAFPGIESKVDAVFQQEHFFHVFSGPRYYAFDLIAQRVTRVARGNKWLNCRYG
Procedure, shortened: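 Human neutrophil collagenase (2 nM) in HEPES/NaCl/CaCl2 buffer, pH 7.4, was followed by fluorescence of coumarin peptide substrate hydrolysis over about 100-200 s. Inhibitor was added stepwise until 30-70% rate reduction. Ki was calculated assuming simple competitive inhibition with substrate far below Km.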

92 kD gelatinase = 92 kD gelatinase (Homo sapiens, UniProt P14780); test: Assay of 92 KD gelatinase inhibition activity; conditions: 92KD gelatinase 25 pM, H-150 buffer pH 7.4; read-out: Ki(app)
92 kD gelatinase, sequence (P14780 107-707): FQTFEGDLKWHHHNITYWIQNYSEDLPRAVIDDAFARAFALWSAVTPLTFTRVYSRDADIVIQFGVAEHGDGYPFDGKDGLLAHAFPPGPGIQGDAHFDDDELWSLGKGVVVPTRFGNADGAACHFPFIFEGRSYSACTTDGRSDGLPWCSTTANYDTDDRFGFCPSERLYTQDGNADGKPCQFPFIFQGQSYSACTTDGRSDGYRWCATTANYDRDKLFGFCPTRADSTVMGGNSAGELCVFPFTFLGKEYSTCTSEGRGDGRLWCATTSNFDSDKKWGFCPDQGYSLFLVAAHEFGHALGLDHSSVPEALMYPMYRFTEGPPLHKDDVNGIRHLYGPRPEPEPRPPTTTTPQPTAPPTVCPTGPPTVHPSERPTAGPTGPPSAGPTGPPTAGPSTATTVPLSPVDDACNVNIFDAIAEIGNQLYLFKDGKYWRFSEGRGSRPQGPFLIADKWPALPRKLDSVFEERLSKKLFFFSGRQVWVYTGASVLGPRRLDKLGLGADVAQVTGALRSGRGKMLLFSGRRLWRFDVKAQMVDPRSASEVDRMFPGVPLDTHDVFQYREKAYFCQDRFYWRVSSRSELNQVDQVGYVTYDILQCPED
Procedure, shortened: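 Pro-92 kD gelatinase activated with 1 mM p-aminophenyl mercuric acetate, 24 h at 37 °C. Assay: 25 pM enzyme in H-150 buffer pH 7.4 with coumarin peptide substrate; hydrolysis rate followed by fluorescence over 100-200 s. Inhibitor titrated in until 30-70% inhibition; Ki calculated assuming simple competitive inhibition with substrate well below Km.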

SMILES | Ki (72 kD gelatinase) [nM] | Ki [1] | Ki (92 kD gelatinase) [nM]
O=C(N[C@@H](Cc1ccc(OCc2ccccc2)cc1)C(=O)N[C@H](C(=O)Nc1n[nH]c(=S)s1)c1ccccc1)OCc1ccccc1 | 0.145 | 1.57 nM | 
CC(C)C[C@H](NC(=O)[C@H](Cc1ccccc1)NC(=O)OCc1ccccc1)C(=O)Nc1n[nH]c(=S)s1 [5-(N-benzyloxycarbonyl-phenylalanyl-leucylamino)-1,3,4-thiadiazole-2-thione] | 1.95 |  | 2.3
CC(C)[C@H](NC(=O)[C@H](Cc1ccccc1)NC(=O)OCc1ccccc1)C(=O)Nc1n[nH]c(=S)s1 [5-(N-benzyloxycarbonyl-phenylalanyl-valylamino)-1,3,4-thiadiazole-2-thione] | 4.6 | 4.8 nM and 7.8 nM | 1.5
